# Ends that are not written are not given here.
# What was measured:
# [1] = tested on: T cell 3DT-52.5; test: IL-2 production by T cell 3DT-52.5 in response to LKD8 cells plus synthetic peptide; type: cell-based, mouse; conditions: synthetic peptide 100 ug/ml, D^d expressing Tap deficient cell line, twenty four hours
# Description: FIG. 14B is a graph showing IL-2 produced by T cell […] in response to (1) P815 plus a bound unknown self-peptide and 2) LKD8, alone, or in the presence of the library derived peptide, TGPTRWCRL (SEQ ID NO:50), or a peptide derived from the spin protein, AGATRWCRL (SEQ ID NO:51).
# DNA from a number of these clones was sequenced through the region encoding the peptide to determine the peptide sequence. Only one sequence was found, a 9mer, TGPTRWCRL (represented by SEQ ID NO:50; the underlined amino acids are in the positions varied in the library). […] A search of the mouse genome for proteins that contained peptides similar to the library peptide yielded a very similar sequence (AGATRWCRL; SEQ ID NO:51) intheprotein, spin(GenBank Accession No. BC011467). The library peptide and the spin peptide were synthesized and tested with a D^d expressing, Tap deficient, cell line for recognition by the original T cell (FIG. 14B). […] In the case of LKD8 the cell line was tested alone or in the presence of 100 ug/ml of the library derived peptide, TGPTRWCRL (SEQ ID NO:50), or a peptide derived from the spin protein, AGATRWCRL (SEQ ID NO:51). After twenty four hours the culture supernatants were assayed for IL-2. Without an added peptide, the D^d on this cell line was not recognized because the Tap deficiency prevents loading of endogenous peptides.
# [2] = tested on: YAe-62 TCR; test: Binding of fluorescent soluble YAe-62 αβTCR to SF9 cells displaying IA^b-peptide (flow cytometry); parameters: species or system mouse; conditions: for YAe-62 TCR Binding (% of p3K): IA^b-peptide displayed on baculovirus-infected SF9 cells, fluorescent soluble αβTCR; for binding of YAe-62 αβTCR to IA^b-peptide complex (in words): insect cells displaying IA^b-peptide
# Method: (§1) Next fluorescent, soluble αβTCR reagents were prepared for use in flow cytometry to detect insect cells displaying the appropriate MHCII/peptide combination. Fluorescent multivalent versions of the soluble αβTCR's of B3K-06 and YAe-62 bound to insect cells displaying the IA^b-p3K, but not a control MHCII-peptide combination (data not shown).
# (§2) Insect cells displaying IA^b-p3K bound the αβTCR reagents very heterogeneously, probably due to heterogeneous expression of IA^b-p3K due to variations in the multiplicity of infection and the lack of synchrony in viral infection and expression. […] In this case, there was a direct correlation between the amount of surface IA^b-p3K expressed by an individual insect cell and the amount of αβTCR bound with cells bearing a particular level of IA^b-p3K binding the αβTCRs uniformly (data not shown). Therefore, comparing the two types of staining gave a useful tool to evaluate the relation between peptide sequence and the strength of αβTCR binding (see below).
# (§3) A large number of SF9 insect cells were infected at an MOI of about one with baculovirus carrying the IA^b peptide library. After 3-4 days the cells were analyzed with fluorescent B3K-06 or YAe-62 soluble αβTCR, as described above. Fluorescent cells were sorted and cultured with fresh uninfected SF9 cells to create new infected cells for analysis and an enriched viral stock. This process was repeated 3 to 4 times. In each case, when no clear fluorescent population was apparent, the brightest 1% of the infected cells was sorted. In later rounds, the majority of the cells in a clearly distinguishable fluorescent population were sorted. Infected cells binding the B3K-06 αβTCR were apparent only after two rounds of enrichment but eventually yielded a population with uniform binding (data not shown). Infected cells that bound the YAe-62 αβTCR were detectable even with the initial library of viruses and enriched rapidly to yield a population with more heterogeneous levels of binding to the receptor (data not shown).
# (§4) At the time of the final enrichment, single infected cells binding each of αβTCRs were sorted into individual wells of 96 well culture plates containing fresh SF9 cells in order to prepare clonal viral stocks. These stocks were used to infect fresh SF9 cells which were reanalyzed for binding to the appropriate αβTCR as described above. […] The majority of PCR fragments yielded a single unambiguous peptide sequence. These viruses were used to infect SF9 cells that expressed mouse ICAM and B7.1. The infected cells were used as APCs for either the B3K-06 or YAe-62 hybridoma with IL-2 production being a measure of IA^b-peptide recognition. Viruses expressing IA^b-peptide combinations that neither bound to the αβTCR nor stimulated the T cell hybridomas were used as negative controls and virus producing IA^b-p3K was used as the positive control. Results with a few representative virus clones are shown in FIG. 10A and 10B, and a summary of all of the results are shown in Table 1.
# [3] = tested on: YAe-62 hybridoma; test: IL-2 production by YAe-62 T cell hybridoma in response to IA^b-peptide presenting APCs; type: cell-based, mouse; conditions: for IL-2 Production (units/ml): YAe-62 hybridoma, infected SF9 cells expressing mouse ICAM and B7.1 as APCs; for difference in the amount of IL-2 production stimulated by the two peptides: SEQ ID NO:39 versus SEQ ID NO:40
# Description: The mouse T cell hybridoma, referred to as YAe-62, was chosen as a representative of broadly reactive T cells present in mice carrying transgenes and gene knockouts that lead to expression of MHC Class II that are almost completely occupied by a single peptide (Ignatowicz et al., 1996, Cell 84:521-529). The T cell was produced by immunization with p3K bound to IA^b in mice that express IA^b covalently linked to Eα, a dominant IA^b binding peptide derived from the MHC Class II IEα chain. YAe-62 responds to IA^b-p3K, but not to APCs lacking MHC Class II or to the IA^b-pEα APCs from the mouse from which it was derived. YAe-62 is also reactive against many cell types bearing IA^b in the absence of p3K. It also responds to APCs from a variety of mice carrying other alleles of IA. The inventors have postulated that this T cell responds mainly to the evolutionarily conserved regions of the IA molecule with less dependence on the peptide than seen with conventional T cells (Marrack et al., 2001, J. Immunol. 167:617-621). […] From the X-ray crystal structure of IA^b (Liu et al., 2002, supra) enough was known about how peptides bind to this MHC molecule to design a strategy in which the major MHC anchor amino acids of the peptide could be held constant and only five surface exposed amino acids need be varied in the library (FIG. 8).
# as §4
# [4] = tested on: B3K-06 TCR; test: Binding of fluorescent soluble B3K-06 αβTCR to SF9 cells displaying IA^b-peptide (flow cytometry); parameters: species or system mouse; conditions: for B3K-06 TCR Binding (% of p3K): IA^b-peptide displayed on baculovirus-infected SF9 cells, fluorescent soluble αβTCR
# Method: as §1, §2, §3, §4
# [5] = tested on: B3K-06 hybridoma; test: IL-2 production by B3K-06 T cell hybridoma in response to IA^b-peptide presenting APCs; type: cell-based, mouse; conditions: for IL-2 Production (units/ml): B3K-06 hybridoma, infected SF9 cells expressing mouse ICAM and B7.1 as APCs
# Description: The hybridoma, B3K-06 was produced from wild-type C57BL/6 mice immunized conventionally with the peptide (Rees et al., 1999, supra). […] Also, as is commonly seen with conventional T cells, the interaction of the αβ TcR of B3K-06 with IA^b-p3K is very sensitive to changes in any of the peptide amino acids exposed on the surface of the IA^b-p3K complex. Mutation of positions Q2, K3, K5, N7 or K8 to alanine virtually eliminates recognition of p3K by B3K-06 (Liu et al., 2002, supra and additional data not shown).
# as §4
Substance,YAe-62 TCR Binding (% of p3K) [2],IL-2 Production (units/ml) [3] [units/ml],also measured
AGATRWCRL (listed as Mus musculus) [peptide derived from the spin protein],–,–,restoration of the ability of LKD8 cells to stimulate the T cells (IL-2) [1]: restored the ability of the cells to stimulate the T cells
F E A A L A R A V P A V (FEAALARAVPAV; synthetic peptide motif) [SEQ ID NO:33],23.4 % of p3K,<3,–
F E A E K A K A L T A V (FEAEKAKALTAV; synthetic peptide motif) [SEQ ID NO:28],49.6 % of p3K,9,–
F E A E R A R A A S A V (FEAERARAASAV; synthetic peptide motif) [SEQ ID NO:36],2.3 % of p3K,<3,–
F E A F M A R A K A A V (FEAFMARAKAAV; synthetic peptide motif) [SEQ ID NO:21],107.5 % of p3K,1256,–
F E A F P A K A L R A V (FEAFPAKALRAV; synthetic peptide motif) [SEQ ID NO:30],38.5 % of p3K,47,–
F E A H T A L A P R A V (FEAHTALAPRAV) [SEQ ID NO:23],80.4 % of p3K,6,–
F E A L P A R A A A A V (FEALPARAAAAV) [SEQ ID NO:22],70.4 % of p3K,681,binding of YAe-62 αβTCR to IA^b-peptide complex (in words) [2]: nearly equally well; difference in the amount of IL-2 production stimulated by the two peptides [3]: 100 fold
F E A L S A K A N T A V (FEALSAKANTAV; synthetic peptide motif) [SEQ ID NO:31],33.3 % of p3K,<3,–
F E A L Y A K A L T A V (FEALYAKALTAV; synthetic peptide motif) [SEQ ID NO:19],98.7 % of p3K,1717,–
F E A P Y A Q A P H A V (FEAPYAQAPHAV; synthetic peptide motif) [SEQ ID NO:38],1.3 % of p3K,<3,–
"F E A Q G A L A N I A V (FEAQGALANIAV; synthetic peptide motif) [pEα, negative control, reference compound]",0.3 % of p3K,<3,B3K-06 TCR Binding (% of p3K) [4]: 0.4 % of p3K; IL-2 Production (units/ml) [5]: <3 units/ml; response of YAe-62 to IA^b-peptide APCs ([3]; APCs bearing IA^b-peptide): not
F E A Q R A R A A R A V (FEAQRARAARAV; also: tethered to IA^b) [SEQ ID NO:16],–,–,"B3K-06 TCR Binding (% of p3K) [4]: 66.8 % of p3K; binding of B3K-06 αβTCR to IA^b-peptide complex (in words) ([4]; insect cells displaying IA^b-peptide): only slightly less well than did the IA^b-p3K complex; IL-2 Production (units/ml) [5]: 25 units/ml; stimulation of B3K-06 to produce IL-2 (in words) ([5]; bound to IA^b on B7/ICAM expressing SF9 APCs): able to stimulate B3K-06 to produce IL-2, but not nearly as well as did p3K"
F E A Q V A H A L P A V (FEAQVAHALPAV; synthetic peptide motif) [SEQ ID NO:29],48.6 % of p3K,32,–
F E A R C A K A S T A V (FEARCAKASTAV; synthetic peptide motif) [SEQ ID NO:20],102.5 % of p3K,467,–
F E A R E A K A L A A V (FEAREAKALAAV; synthetic peptide motif) [SEQ ID NO:32],27.0 % of p3K,<3,–
F E A R L A S A G K A V (FEARLASAGKAV; synthetic peptide motif) [SEQ ID NO:35],2.6 % of p3K,<3,–
F E A R T A H A R N A V (FEARTAHARNAV; synthetic peptide motif) [SEQ ID NO:37],1.4 % of p3K,<3,–
F E A S K A S A A V A V (FEASKASAAVAV; synthetic peptide motif) [SEQ ID NO:34],13.0 % of p3K,<3,–
F E A S L A R A R S A V (FEASLARARSAV) [SEQ ID NO:24],76.2 % of p3K,5,–
F E A T T A R A L T A V (FEATTARALTAV; synthetic peptide motif) [SEQ ID NO:27],52.0 % of p3K,6,–
F E A Y T A R A R T A V [SEQ ID NO:25] (FEAYTARARTAV),58.3 % of p3K,5,–
F E A Y T A R A R T A V [SEQ ID NO:26] (FEAYTARARTAV; synthetic peptide motif),54.9 % of p3K,7,–
FEAQTAKARGAVD (synthetic peptide motif),–,–,binding of YAe-62 αβTCR to IA^b-peptide complex (in words) [2]: nearly equally well; difference in the amount of IL-2 production stimulated by the two peptides [3]: 100 fold
